Source: patent US20050130221A1, “Synthesis for the preparation of compounds for screening as potential tubulin binding agents” (The Australian National University, priority 2001, published 2005)
Read-outs that look alike come from different tables or passages of the source.

Key:
tubulin [1] = test system: T1, tubulin; experiment: Inhibition of [3H]colchicine binding to tubulin; details: tubulin 1.0 μM, [3H]colchicine 5.0 μM
T1 construct: other: tubulin 10 μM; extent of assembly measured; asterisk: rate but not ex; tubulin 1.0 μM; [3H]colchicine; [3H]colchicin

[2] = test system: Burkitt lymphoma CA46 cells; experiment: Inhibition of CA46 cell growth; format: cell-based; details: Homo sapiens
tubulin [3] = details: background statement, literature; cited from earlier work
tubulin [4] = test system: T1, tubulin; experiment: Inhibition of tubulin polymerization; format: biochemical; details: tubulin 10 μM; extent of assembly measured; asterisk: rate but not extent inhibited up to 40 μM
[5] = test system: MCF-7 human breast carcinoma cell line; experiment: Inhibition of MCF-7 cell growth; format: cell-based
[6] = CA46, read-out: Inhibition of CA46 cell growth IC50

melting point [°C] | SMILES | Inhibition of colchicine binding (% inhibition), 5 μM inhibitor (tubulin [1]) [%] | IC50 (tubulin [4]) [nM] | other results
 | COc1ccc(/C=C\c2cc(OC)c(OC)c(OC)c2)cc1O [(A), Combretastatin A4, reference compound] | 91 |  | IC50 ([2]; Burkitt lymphoma CA46 cells, read-out: Inhibition of CA46 cell growth IC50): 1 nM
 | COc1ccc2[nH]c(-c3ccc4c(c3)OCO4)c(-c3cc(OC)c(OC)c(OC)c3)c2c1 [(C)] |  |  | tubulin binding activity (tubulin [3]): moderate
 | COc1ccc(-c2oc3cc(O)c(OC)cc3c2-c2cc(OC)c(OC)c(OC)c2)cc1O [(D)] |  |  | tubulin binding activity (tubulin [3]): did not exhibit tubulin binding activity
 | COc1ccc2c(C(O)c3ccc(OC)c(O)c3)c(-c3cc(OC)c(OC)c(OC)c3)sc2c1 (centres unmarked) [BLF-34-3] | 5 | 6100 ± 800 | Inhibition of colchicine binding (% inhibition), 50 μM inhibitor (tubulin [1]): 73%; IC50 [2, 6]: > 1000 nM
98 to 99 | COc1ccc2c(-c3cc(OC)c(OC)c(OC)c3)c(-c3ccc(OC)c(O)c3)[nH]c2c1 [BLF-61-3, 6-Methoxy-2-(3-hydroxy-4-methoxyphenyl)-3-(3,4,5-trimethoxyphenyl)indole] |  |  | 
68 to 69 | COc1ccc2c(C(=O)c3cc(OC)c(OC)c(OC)c3)c(-c3ccc(OC)c(O)c3)oc2c1 [BLF-62-3, 6-Methoxy-2-(3-hydroxy-4-methoxyphenyl)-3-(3,4,5-trimethoxybenzoyl)benzo bifuran] |  |  | 
53 to 54 | COc1ccc(-c2oc3cc(OC)ccc3c2C(O)c2cc(OC)c(OC)c(OC)c2)cc1 (centres unmarked) [BLF-68-3] |  |  | 
68 to 69 | COc1ccc2c(C(O)c3cc(OC)c(OC)c(OC)c3)c(-c3ccc(OC)c(O)c3)oc2c1 (stereo not drawn) [BLF-69-3, 6-Methoxy-2-(3-hydroxy-4-methoxyphenyl)-3-[α-hydroxy-α-(3,4,5-trimethoxyphenyl)methyl]benzo[b]furan] |  |  | 
121 to 122 | COc1ccc(-c2oc3cc(OC)ccc3c2Cc2cc(OC)c(OC)c(OC)c2)cc1 [BLF-70-3, 6-Methoxy-2-(4-methoxyphenyl)-3-(3,4,5-trimethoxybenzyl)benzo[b]furan] |  |  | 
123 to 125 | COc1ccc2c(C(=O)c3cc(OC)c(OC)c(OC)c3)c(-c3ccc(OC)c(O)c3)sc2c1 [BLF-86-1, 2-(3′-Hydroxy-4′-methoxyphenyl)6-methoxy-3-(3″,4″,5″-trimethoxybenzoyl)benzo[b]thiophene] |  |  | 
 | COc1ccc(C2=C(C(=O)c3cc(OC)c(OC)c(OC)c3)C(=O)c3cc(OC)c(OC)c(OC)c32)cc1O [DK-12a-1, 3-(3′-Hydroxy-4′-methoxyphenyl)-4,5,6-trimethoxy-2-(3′,4″,5″-trimethoxybenzoyl)indenone] |  | 10000 to 40000 | 
 | COc1ccc(C2=C(c3cc(OC)c(OC)c(OC)c3)CCS2)cc1OC(C)=O [GPF-60-1, 2-(3′-acetoxy-4′-methoxyphenyl)-4,5-dihydro-3-(3″,4″,5″-trimethoxyphenyl)thiophene] | 64 | 3600 ± 1000 | IC50 ([5]; Homo sapiens, MCF7, read-out: Inhibition of cell growth IC50 (MCF-7)): 390 nM; Inhibition of colchicine binding (% inhibition), 50 μM inhibitor (tubulin [1]): 88%
 | COc1ccc(C(=O)c2cc3cc(O)c(OC)cc3s2)cc1O [KH-2-2, 5-Hydroxy-2-(3′-hydroxy-4′-methoxybenzoyl)-6-methoxybenzo[b]thiophene] |  | 2400 ± 400 | 

SMILES | melting point [°C] | Inhibition of colchicine binding (% inhibition), 5 μM inhibitor (tubulin [1]) [%] | IC50 (tubulin [4]) [nM] | other results
COc1ccc(-c2sc3cc4c(cc3c2C(=O)c2cc(OC)c(OC)c(OC)c2)OCO4)cc1O [BLF-53-3, 2-(3′-Hydroxy-4′-methoxyphenyl)-5,6-methylendioxy-3-(3″,4″,5″-trimethoxybenzoyl)benzo[b]thiophene] | 156 to 157 | 2 | > 40000 | Inhibition of colchicine binding (% inhibition), 50 μM inhibitor (tubulin [1]): 31%; IC50 [2, 6]: > 1000 nM
COc1ccc(-c2sccc2C(=O)c2cc(OC)c(OC)c(OC)c2)cc1O [BLF-89-3] | 151 to 152 | 67 | 1000 ± 100 | IC50 ([5]; MCF7, MCF-7 human breast carcinoma cell line, read-out: Inhibition of cell growth IC50 (MCF-7)): 300 nM
